Laboratory results: US20040002141A1, “Methods and compositions for propagating vectors containing toxic cDNAs and ion channel assay systems” (priority 2002, published 2004)

Legend:
αβγENaC channels = target: T1, αβγENaC channels (Rattus norvegicus, UniProt P37089+P37090+P37091); settings: McNicholas and Canessa, 1997; cited from earlier work
T1 sequence (P37089 1-698): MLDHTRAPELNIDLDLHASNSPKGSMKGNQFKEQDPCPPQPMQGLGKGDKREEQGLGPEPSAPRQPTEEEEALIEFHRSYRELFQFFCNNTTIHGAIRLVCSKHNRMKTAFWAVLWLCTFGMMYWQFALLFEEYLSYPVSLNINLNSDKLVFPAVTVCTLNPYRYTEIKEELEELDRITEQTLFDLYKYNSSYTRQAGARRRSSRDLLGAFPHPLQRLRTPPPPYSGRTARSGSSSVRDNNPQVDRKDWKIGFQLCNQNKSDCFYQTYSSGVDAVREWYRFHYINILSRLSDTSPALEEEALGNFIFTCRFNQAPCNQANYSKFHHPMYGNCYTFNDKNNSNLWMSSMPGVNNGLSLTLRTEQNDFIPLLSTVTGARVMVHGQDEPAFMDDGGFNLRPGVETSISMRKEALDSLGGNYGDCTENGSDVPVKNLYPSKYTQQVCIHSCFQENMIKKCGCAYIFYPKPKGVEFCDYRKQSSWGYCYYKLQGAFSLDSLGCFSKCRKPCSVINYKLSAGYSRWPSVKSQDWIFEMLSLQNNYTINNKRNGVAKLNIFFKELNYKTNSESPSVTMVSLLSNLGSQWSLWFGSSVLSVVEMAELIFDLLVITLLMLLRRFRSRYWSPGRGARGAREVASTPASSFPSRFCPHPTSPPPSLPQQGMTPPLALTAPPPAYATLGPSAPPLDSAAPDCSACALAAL
T1 sequence (P37090 1-638): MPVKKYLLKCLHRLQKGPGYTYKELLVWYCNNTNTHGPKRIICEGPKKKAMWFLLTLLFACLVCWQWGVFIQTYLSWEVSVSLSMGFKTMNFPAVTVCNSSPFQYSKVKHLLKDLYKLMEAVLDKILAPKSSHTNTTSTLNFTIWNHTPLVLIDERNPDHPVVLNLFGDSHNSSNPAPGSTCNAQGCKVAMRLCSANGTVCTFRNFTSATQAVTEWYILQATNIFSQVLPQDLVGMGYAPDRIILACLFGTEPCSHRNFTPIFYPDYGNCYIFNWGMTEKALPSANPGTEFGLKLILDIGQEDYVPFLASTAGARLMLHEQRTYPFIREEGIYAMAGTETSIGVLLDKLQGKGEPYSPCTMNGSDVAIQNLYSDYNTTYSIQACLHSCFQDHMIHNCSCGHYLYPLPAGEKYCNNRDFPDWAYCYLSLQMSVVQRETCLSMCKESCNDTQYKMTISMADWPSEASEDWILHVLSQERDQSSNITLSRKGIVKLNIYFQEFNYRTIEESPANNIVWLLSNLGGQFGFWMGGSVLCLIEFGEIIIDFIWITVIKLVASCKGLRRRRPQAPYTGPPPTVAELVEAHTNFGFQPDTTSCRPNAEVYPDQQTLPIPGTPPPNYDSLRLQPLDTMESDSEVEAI
T1 sequence (P37091 1-650): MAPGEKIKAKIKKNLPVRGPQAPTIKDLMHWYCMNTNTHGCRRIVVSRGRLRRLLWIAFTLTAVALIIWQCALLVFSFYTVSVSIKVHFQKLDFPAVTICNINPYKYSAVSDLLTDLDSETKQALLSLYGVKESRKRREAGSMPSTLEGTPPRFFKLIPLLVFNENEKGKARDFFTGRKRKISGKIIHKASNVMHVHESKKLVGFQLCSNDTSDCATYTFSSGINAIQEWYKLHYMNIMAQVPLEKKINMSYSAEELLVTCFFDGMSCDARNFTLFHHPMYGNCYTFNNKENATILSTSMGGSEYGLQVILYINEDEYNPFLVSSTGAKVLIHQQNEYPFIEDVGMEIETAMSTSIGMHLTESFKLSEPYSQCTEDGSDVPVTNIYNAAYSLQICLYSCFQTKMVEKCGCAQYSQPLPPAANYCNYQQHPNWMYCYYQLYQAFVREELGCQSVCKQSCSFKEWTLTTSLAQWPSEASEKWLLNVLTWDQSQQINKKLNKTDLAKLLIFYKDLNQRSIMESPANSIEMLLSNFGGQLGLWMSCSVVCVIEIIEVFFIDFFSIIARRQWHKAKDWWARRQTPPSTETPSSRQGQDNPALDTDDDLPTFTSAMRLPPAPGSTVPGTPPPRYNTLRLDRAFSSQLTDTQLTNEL

MEC-4d and MEC-2 = target: T2, MEC-4d and MEC-2 (Caenorhabditis elegans, UniProt P24612, A713T); experiment: Amiloride dose-response, two-electrode voltage clamp in Xenopus oocytes co-expressing MEC-4d and MEC-2; assay type: cell-based; settings: in the absence of MEC-10d; without MEC-2(114-363)
T2 construct: Plasmids containing full-length degenerin cDNAs are toxic to standard E. coli strains; expressed in transfected cells; host or cells: Xenopus laevis oocytes injected with cRNA
T2 sequence (Q27433 whole entry): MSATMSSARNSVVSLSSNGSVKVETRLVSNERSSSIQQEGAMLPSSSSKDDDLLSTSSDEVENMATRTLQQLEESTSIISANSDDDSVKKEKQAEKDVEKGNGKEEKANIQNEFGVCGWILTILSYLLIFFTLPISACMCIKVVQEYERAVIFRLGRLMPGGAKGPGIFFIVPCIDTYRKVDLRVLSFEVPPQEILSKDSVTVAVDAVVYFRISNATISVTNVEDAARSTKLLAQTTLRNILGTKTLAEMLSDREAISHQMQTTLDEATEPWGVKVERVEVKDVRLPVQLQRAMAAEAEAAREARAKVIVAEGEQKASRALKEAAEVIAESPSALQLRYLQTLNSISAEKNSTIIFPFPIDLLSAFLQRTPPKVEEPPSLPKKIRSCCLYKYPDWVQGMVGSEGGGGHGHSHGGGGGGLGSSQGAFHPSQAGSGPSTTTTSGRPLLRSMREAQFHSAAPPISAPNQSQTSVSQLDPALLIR
T2 sequence (P24612 whole entry A713T): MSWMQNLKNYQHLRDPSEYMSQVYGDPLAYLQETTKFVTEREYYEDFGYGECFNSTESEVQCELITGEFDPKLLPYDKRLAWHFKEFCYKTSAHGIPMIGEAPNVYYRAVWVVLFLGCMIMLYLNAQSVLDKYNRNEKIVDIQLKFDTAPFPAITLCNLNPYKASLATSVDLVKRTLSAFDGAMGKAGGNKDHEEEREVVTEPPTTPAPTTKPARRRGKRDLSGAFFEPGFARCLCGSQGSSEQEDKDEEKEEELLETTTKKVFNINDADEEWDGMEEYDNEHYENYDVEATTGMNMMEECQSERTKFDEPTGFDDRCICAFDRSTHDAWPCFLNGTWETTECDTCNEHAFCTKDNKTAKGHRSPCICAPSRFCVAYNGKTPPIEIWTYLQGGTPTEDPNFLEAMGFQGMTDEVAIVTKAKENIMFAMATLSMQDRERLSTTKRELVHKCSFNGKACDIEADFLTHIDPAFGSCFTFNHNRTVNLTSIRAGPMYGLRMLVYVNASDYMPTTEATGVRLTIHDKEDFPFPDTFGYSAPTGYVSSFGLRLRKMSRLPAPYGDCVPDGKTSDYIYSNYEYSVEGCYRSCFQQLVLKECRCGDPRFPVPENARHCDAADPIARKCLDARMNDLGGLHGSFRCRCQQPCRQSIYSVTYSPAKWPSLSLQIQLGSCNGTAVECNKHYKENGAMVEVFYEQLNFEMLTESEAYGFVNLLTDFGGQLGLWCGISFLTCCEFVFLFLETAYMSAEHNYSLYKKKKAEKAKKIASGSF
Procedure: (§1) Oocyte Expression & Electrophysiology. Capped RNAs (“cRNAs”) were synthesized (T7 mMESSAGE mMACHINE™ kit, Ambion, Austin, Tex.), purified, and quantified spectroscopically. Xenopus laevis oocytes were harvested and injected with 10 ng of each cRNA, except for oocytes co-expressing only MEC-4d and MEC-2(114-363), which were injected with 10 ng of the former and 20 ng of the latter. Oocytes were maintained in L-15 oocyte medium containing 100 μg/mL gentamicin (Cell & Molecular Technologies, Philipsburg, N.J.) at 16-18° C.
(§2) Membrane potential and current were measured 4-10 days after cRNA injection using a two-electrode voltage clamp (Warner OC-725C) at 22-25° C. […]
(§3) Analog signals were filtered at 200 Hz and sampled at 1-2 kHz (ITC-16, Instrutech, Great Neck, N.Y.); a 60 Hz notch filter was used to minimize line noise. Average values are reported as mean±S.E.M. Curves were fit by a nonlinear least-squares method (IgorPro 4.01, Wavemetrics, Oswego, Oreg.); the standard deviation measured at each point provided the weighting function. […] Relative permeabilities were calculated from the difference in reversal potential measured in solutions containing Na^+ and each test ion using the Goldman-Hodgkin-Katz equation (Hille, 2001, In: Ion Channels of Excitable Membranes, Sinaur Associates, Inc., Sunderland, Mass.).

[1] = target: T3, MEC-4d, MEC-10d and MEC-2 (Caenorhabditis elegans, UniProt P24612+P34886, A673T/A713T); experiment: Amiloride dose-response, two-electrode voltage clamp in Xenopus oocytes co-expressing MEC-4d, MEC-10d and MEC-2; assay type: cell-based; settings: in the presence of MEC-10d
T3 construct: Plasmids containing full-length degenerin cDNAs are toxic to standard E. coli strains; expressed in transfected cells; host or cells: Xenopus laevis oocytes injected with cRNA
T3 sequence (P34886 whole entry A673T): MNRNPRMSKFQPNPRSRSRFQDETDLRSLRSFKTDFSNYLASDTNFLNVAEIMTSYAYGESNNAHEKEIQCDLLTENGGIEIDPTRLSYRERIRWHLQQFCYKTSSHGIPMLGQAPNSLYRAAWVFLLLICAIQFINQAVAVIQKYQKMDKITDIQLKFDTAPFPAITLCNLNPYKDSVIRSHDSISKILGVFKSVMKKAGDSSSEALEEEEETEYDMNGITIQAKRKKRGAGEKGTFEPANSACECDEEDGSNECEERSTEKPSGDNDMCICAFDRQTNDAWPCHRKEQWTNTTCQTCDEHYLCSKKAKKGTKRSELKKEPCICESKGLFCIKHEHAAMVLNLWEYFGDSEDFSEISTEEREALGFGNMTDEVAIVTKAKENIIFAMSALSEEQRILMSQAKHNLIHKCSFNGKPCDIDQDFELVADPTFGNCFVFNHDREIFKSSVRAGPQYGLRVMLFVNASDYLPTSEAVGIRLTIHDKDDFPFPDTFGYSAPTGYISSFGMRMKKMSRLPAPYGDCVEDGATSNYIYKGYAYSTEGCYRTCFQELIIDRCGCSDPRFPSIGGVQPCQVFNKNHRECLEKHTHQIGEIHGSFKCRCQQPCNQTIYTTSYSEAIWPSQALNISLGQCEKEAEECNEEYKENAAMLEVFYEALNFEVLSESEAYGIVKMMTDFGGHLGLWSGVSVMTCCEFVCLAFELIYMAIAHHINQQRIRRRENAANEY
T3 sequence (P24612 whole entry A713T): as the sequence (P24612 whole entry A713T) above
Procedure: as §1, §2, §3

UNC-105d = settings: García-Añoveros et al., 1998; cited from earlier work

SMILES: N=C(N)NC(=O)c1nc(Cl)c(N)nc1N [amiloride]
- δ, voltage-dependence of amiloride blockade (αβγENaC channels): 0.15
- δ, voltage-dependence of amiloride blockade (Woodhull model fit) (MEC-4d and MEC-2): 0.63
- δ, voltage-dependence of amiloride blockade (Woodhull model fit) [1]: 0.52
- δ, voltage-dependence of amiloride blockade (UNC-105d): 0.65-0.68
